The target of the assay is T1, Acetylcholinesterase (Bos taurus, UniProt P23795).
T1 sequence (P23795 whole entry): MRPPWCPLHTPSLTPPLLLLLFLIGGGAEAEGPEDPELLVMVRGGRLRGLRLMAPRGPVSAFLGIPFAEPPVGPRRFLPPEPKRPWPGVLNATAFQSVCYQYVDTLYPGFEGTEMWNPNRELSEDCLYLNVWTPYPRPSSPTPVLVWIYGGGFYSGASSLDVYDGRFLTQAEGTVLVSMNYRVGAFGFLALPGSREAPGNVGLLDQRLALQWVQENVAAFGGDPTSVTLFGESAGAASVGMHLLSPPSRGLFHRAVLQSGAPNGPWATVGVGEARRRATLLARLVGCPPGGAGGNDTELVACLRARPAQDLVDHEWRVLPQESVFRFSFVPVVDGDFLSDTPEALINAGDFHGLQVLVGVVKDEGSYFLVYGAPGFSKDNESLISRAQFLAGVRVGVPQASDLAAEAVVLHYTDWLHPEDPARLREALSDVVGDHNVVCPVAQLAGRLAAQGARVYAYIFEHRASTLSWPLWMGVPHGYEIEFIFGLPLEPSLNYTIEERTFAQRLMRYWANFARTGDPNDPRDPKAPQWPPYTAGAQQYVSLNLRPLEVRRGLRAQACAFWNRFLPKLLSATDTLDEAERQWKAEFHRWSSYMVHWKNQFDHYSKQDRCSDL
Nature of the assay: Inhibitory constant against fetal bovine serum (FBS) acetylcholinesterase.
The molecule `CC1=C[C@H]2Cc3[nH]c(=O)ccc3[C@]3(C1)NCCC[C@H]23` [HUPERZINE B] returned a Ki of 794 nM.
Under `CC1=CC2Cc3nc(O)ccc3C3(C1)NCC(C)=C23` (stereo not given) stands 220 nM; under `CC1=CC2Cc3[nH]c(=O)ccc3C3(C1)NCCC(C)=C23` (stereo not given), 2050 nM; under `C/C=C1\[C@H]2C=C(C)C[C@]1(N)c1ccc(=O)[nH]c1C2` [HUPERZINE A], 24 nM.
`CCC1=C2C3C=C(C)CC2(NC1)c1ccc(O)nc1C3` (stereo not given) showed a Ki of 400 nM. Against the preceding molecule, the Ki is about 17-fold higher.
